In ChEMBL document CHEMBL6153118, “Structure Optimization of Natural Product Catalpol to Obtain Novel and Potent Analogs against Heart Failure” (J Med Chem, 2025):
Active and inactive are the calls of the source. The calls are words filed in the database; no cut-off is given here.

Columns and labels:
H9c2 [1] = assay: Cytoprotective activity against OGD-induced myocardial ischemic injury in rat H9c2 cells assessed as decrease in LDH level at 5 to 50 uM preincubated for 12 hrs followed by exposure to OGD condition for 3 hrs by UV absorption analysis; assay type: functional, cell-based; settings: dose 5-50 µM, time 15.0 hrs
H9c2 [2] = assay: Inhibition of apoptosis in ISO-treated rat H9c2 cells assessed as increase in Bcl-2 level by Western blot analysis; assay type: functional, cell-based; settings: dose 5-50 µM
Mus musculus [3] = assay: Inhibition of cardiomyocyte hypertrophy in ISO-induced heart failure C57BL/6J mouse assessed as decrease in GSK-3beta phosphorylation in heart tissue administered orally daily for 14 days by Western blot analysis; assay type: functional, organism-based; settings: dose 5-20 mg/kg/day, route po, time 14.0 day
[4] = Oral bioavailability in C57/6J mouse at 20 mg/kg measured for 24 hrs; assay type: ADME, organism-based; settings: in vivo
[5] = Toxicity in C57BL/6J mouse assessed as change in relative organ weights at 400 mg/kg, po administered as single dose measured for 7 days; assay type: organism-based; settings: in vivo, 168 h, time 7 day
Mus musculus [6] = assay: Cardioprotective activity in ISO-induced heart failure C57BL/6J mouse assessed as fractional shortening in heart at 20 mg/kg/day, po for 14 days by echocardiography (reference value: 24.49 +/- 1.49 %); assay type: functional; settings: time 14 day
CYP2D6 = CYP2D6 (Homo sapiens, UniProt P10635); assay: Inhibition of CYP2D6 in human liver microsomes preincubated for 10 mins followed by NADPH addition measured after 10 mins by LC/MS/MS analysis relative to control; assay type: ADME, Microsome; settings: time 20 min
Sequence of CYP2D6 (P10635 whole entry): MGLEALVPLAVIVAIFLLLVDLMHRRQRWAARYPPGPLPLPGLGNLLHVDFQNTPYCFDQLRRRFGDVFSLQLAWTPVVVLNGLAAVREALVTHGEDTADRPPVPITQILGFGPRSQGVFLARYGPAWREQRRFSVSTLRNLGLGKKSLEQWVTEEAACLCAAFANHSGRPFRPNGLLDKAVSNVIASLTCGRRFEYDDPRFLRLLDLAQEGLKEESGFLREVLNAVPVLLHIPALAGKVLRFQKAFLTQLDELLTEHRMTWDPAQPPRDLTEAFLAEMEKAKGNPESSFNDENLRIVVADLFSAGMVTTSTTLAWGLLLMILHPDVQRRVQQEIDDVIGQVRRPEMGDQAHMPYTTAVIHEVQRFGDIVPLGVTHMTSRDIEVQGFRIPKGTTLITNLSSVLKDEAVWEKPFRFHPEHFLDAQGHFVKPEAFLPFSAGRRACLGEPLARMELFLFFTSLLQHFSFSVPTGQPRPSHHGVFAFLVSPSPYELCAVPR

H9c2 [7] = assay: Inhibition of apoptosis in ISO-treated rat H9c2 cells assessed as decrease in Bax level by Western blot analysis; assay type: functional, cell-based; settings: dose 5-50 µM
[8] = Metabolic stability in mouse liver microsomes assessed as intrinsic clearance measured for 5 to 60 mins in presence of NADPH by LC-MS/MS analysis; assay type: ADME, Microsome; settings: time 5-60 min, read-out: CLH
Mus musculus [9] = assay: Inhibition of cardiomyocyte hypertrophy in ISO-induced heart failure C57BL/6J mouse assessed as increase in Bcl-2 level in heart tissue at 5 to 20 mg/kg/day, po for 14 days by Western blot analysis; assay type: functional, organism-based; settings: dose 5-20 mg/kg/day, time 14.0 day
[10] = Metabolic stability in human liver microsomes assessed as half life measured for 5 to 60 mins in presence of NADPH by LC-MS/MS analysis; assay type: ADME, Microsome; settings: time 5-60 min
[11] = Cmax in C57/6J mouse at 20 mg/kg, po measured for 24 hrs; assay type: ADME, organism-based; settings: in vivo
H9c2 [12] = assay: Inhibition of apoptosis in ISO-treated rat H9c2 cells by Annexin V-FITC/PI staining based flow cytometry; assay type: functional, cell-based; settings: dose 5-50 µM
Mus musculus [13] = assay: Inhibition of cardiomyocyte hypertrophy in ISO-induced heart failure C57BL/6J mouse assessed as decrease in ratio of p-PI3K to PI3K levels in heart tissue administered orally daily for 14 days by Western blot analysis; assay type: functional, organism-based; settings: dose 5-20 mg/kg/day, route po, time 14.0 day
Mus musculus [14] = assay: Inhibition of cardiac fibrosis in ISO-induced heart failure C57BL/6J mouse at 5 to 20 mg/kg/day, po for 14 days; assay type: functional, organism-based; settings: dose 5-20 mg/kg/day, time 14.0 day
[15] = Toxicity in C57BL/6J mouse assessed as animal mortality at 400 mg/kg, po administered as single dose measured for 7 days; assay type: organism-based; settings: in vivo, 168 h, time 7 day
Mus musculus [16] = assay: Inhibition of cardiomyocyte hypertrophy in ISO-induced heart failure C57BL/6J mouse assessed as decrease in ANP level administered orally daily for 14 days by Western blot analysis; assay type: functional, organism-based; settings: dose 5-20 mg/kg/day, route po, time 14.0 day
Mus musculus [17] = assay: Inhibition of cardiomyocyte hypertrophy in ISO-induced heart failure C57BL/6J mouse assessed as decrease in Bax level in heart tissue at 5 to 20 mg/kg/day, po for 14 days by Western blot analysis; assay type: functional, organism-based; settings: dose 5-20 mg/kg/day, time 14.0 day
CYP2C9 = CYP2C9 (Homo sapiens, UniProt P11712); assay: Inhibition of CYP2C9 in human liver microsomes preincubated for 10 mins followed by NADPH addition measured after 10 mins by LC/MS/MS analysis relative to control; assay type: ADME, Microsome; settings: time 20 min
Sequence of CYP2C9 (P11712 whole entry): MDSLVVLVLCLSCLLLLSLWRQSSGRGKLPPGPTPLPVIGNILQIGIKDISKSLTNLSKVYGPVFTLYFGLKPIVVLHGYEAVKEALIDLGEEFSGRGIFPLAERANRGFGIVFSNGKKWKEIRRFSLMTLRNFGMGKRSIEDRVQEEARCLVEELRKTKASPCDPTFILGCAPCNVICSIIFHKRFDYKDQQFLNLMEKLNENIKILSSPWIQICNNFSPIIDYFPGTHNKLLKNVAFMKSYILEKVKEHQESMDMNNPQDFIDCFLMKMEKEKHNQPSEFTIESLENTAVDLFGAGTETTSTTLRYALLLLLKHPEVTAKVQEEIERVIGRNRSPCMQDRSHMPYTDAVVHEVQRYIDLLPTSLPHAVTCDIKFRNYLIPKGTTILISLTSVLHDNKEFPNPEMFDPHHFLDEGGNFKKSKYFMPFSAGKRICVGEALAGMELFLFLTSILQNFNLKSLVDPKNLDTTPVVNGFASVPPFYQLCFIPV

Mus musculus [18] = assay: Inhibition of cardiomyocyte hypertrophy in ISO-induced heart failure C57BL/6J mouse at 5 to 20 mg/kg/day, po for 14 days by WGA staining based analysis; assay type: functional, organism-based; settings: dose 5-20 mg/kg/day, time 14.0 day
[19] = Metabolic stability in mouse liver microsomes assessed as half life measured for 5 to 60 mins in presence of NADPH by LC-MS/MS analysis; assay type: ADME, Microsome; settings: time 5-60 min
[20] = Half life in C57/6J mouse at 20 mg/kg, po measured for 24 hrs; assay type: ADME, organism-based; settings: in vivo
[21] = MRT (0 to t) in C57/6J mouse at 5 mg/kg, iv measured for 24 hrs; assay type: ADME, organism-based; settings: in vivo
Mus musculus [22] = assay: Inhibition of cardiomyocyte hypertrophy in ISO-induced heart failure C57BL/6J mouse assessed as decrease in AKT phosphorylation in heart tissue administered orally daily for 14 days by Western blot analysis; assay type: functional, organism-based; settings: dose 5-20 mg/kg/day, route po, time 14.0 day
H9c2 [23] = assay: Cytoprotective activity against OGD-induced myocardial ischemic injury in rat H9c2 cells assessed as cell viability at 5 uM preincubated for 12 hrs followed by exposure to OGD condition for 3 hrs by CCK8 assay (reference value: 49.23 to 50.05 %); assay type: functional; settings: time 15 hrs, read-out: Activity
[24] = Metabolic stability in human liver microsomes assessed as intrinsic clearance measured for 5 to 60 mins in presence of NADPH by LC-MS/MS analysis; assay type: ADME, Microsome; settings: time 5-60 min, read-out: CLH
[25] = Tmax in C57/6J mouse at 5 mg/kg, iv measured for 24 hrs; assay type: ADME, organism-based; settings: in vivo
Mus musculus [26] = assay: Inhibition of cardiomyocyte hypertrophy in ISO-induced heart failure C57BL/6J mouse assessed as decrease in ratio of p-AKT to AKT levels in heart tissue administered orally daily for 14 days by Western blot analysis; assay type: functional, organism-based; settings: dose 5-20 mg/kg/day, route po, time 14.0 day
[27] = Toxicity in C57BL/6J mouse assessed as signs of morbidity at 400 mg/kg, po administered as single dose measured for 7 days; assay type: organism-based; settings: in vivo, 168 h, time 7 day
CYP2C19 = CYP2C19 (Homo sapiens, UniProt P33261); assay: Inhibition of CYP2C19 in human liver microsomes preincubated for 10 mins followed by NADPH addition measured after 10 mins by LC/MS/MS analysis relative to control; assay type: ADME, Microsome; settings: time 20 min
Sequence of CYP2C19 (P33261 whole entry): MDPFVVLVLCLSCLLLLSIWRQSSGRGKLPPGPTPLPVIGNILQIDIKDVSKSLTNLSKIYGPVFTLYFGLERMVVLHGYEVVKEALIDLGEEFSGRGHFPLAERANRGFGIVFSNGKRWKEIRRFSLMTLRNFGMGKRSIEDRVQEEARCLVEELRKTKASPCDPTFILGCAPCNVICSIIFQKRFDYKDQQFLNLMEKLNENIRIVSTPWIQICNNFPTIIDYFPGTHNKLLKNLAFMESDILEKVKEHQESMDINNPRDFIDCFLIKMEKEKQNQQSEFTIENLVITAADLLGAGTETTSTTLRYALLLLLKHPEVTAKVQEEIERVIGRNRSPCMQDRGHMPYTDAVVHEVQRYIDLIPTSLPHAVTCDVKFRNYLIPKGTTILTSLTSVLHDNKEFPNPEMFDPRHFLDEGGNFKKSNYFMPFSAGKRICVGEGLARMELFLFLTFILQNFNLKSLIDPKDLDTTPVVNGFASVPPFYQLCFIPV

H9c2 [28] = assay: Cytoprotective activity against OGD-induced myocardial ischemic injury in rat H9c2 cells assessed as decrease in ROS level at 5 to 50 uM preincubated for 12 hrs followed by exposure to OGD condition for 3 hrs by DCFH-DA probe based analysis; assay type: functional, cell-based; settings: dose 5-50 µM, time 15.0 hrs
[29] = AUC (0 to t) in C57/6J mouse at 5 mg/kg, iv measured for 24 hrs; assay type: ADME, organism-based; settings: in vivo
Mus musculus [30] = assay: Inhibition of cardiomyocyte hypertrophy in ISO-induced heart failure C57BL/6J mouse assessed as decrease in PI3K phosphorylation in heart tissue administered orally daily for 14 days by Western blot analysis; assay type: functional, organism-based; settings: dose 5-20 mg/kg/day, route po, time 14.0 day
Mus musculus [31] = assay: Cardioprotective activity in ISO-induced heart failure C57BL/6J mouse assessed as ejection fraction in heart at 20 mg/kg/day, po for 14 days by echocardiography (reference value: 49.55 +/- 2.41 %); assay type: functional; settings: time 14 day
Mus musculus [32] = assay: Inhibition of cardiomyocyte hypertrophy in ISO-induced heart failure C57BL/6J mouse at 5 to 20 mg/kg/day, po for 14 days; assay type: functional, organism-based; settings: dose 5-20 mg/kg/day, time 14.0 day
[33] = AUC (0 to t) in C57/6J mouse at 20 mg/kg, po measured for 24 hrs; assay type: ADME, organism-based; settings: in vivo

OC[C@H]1O[C@@H](O[C@@H]2OC=C[C@H]3[C@H](O)[C@@H]4O[C@]4(COc4ccc(C(F)(F)F)cc4)[C@@H]23)[C@H](O)[C@@H](O)[C@@H]1O
Activity (H9c2 [1]): Active
inhibition (H9c2 [2]): Dose-dependent-effect
inhibition (Mus musculus [3]): Dose-dependent-effect
bioavailability [4]: 41.8%
Activity [5]: Non-toxic
Activity (Mus musculus [6]): 31.27%
inhibition at 10 min (CYP2D6): 4.3%
inhibition (H9c2 [7]): Dose-dependent-effect
CLint scaled [8]: < 2.28 L/h/kg
inhibition (Mus musculus [9]): Active
half-life [10]: > 145 min
Cmax [11]: 0.505 µg/mL
inhibition (H9c2 [12]): Active; Exhibited Significantly Greater Decrease In Apoptotic Rate
inhibition (Mus musculus [13]): Dose-dependent-effect
inhibition (Mus musculus [14]): Active
Activity [15]: Non-toxic
inhibition (Mus musculus [16]): Dose-dependent-effect; Restored Anp Level To Physiological Level
inhibition (Mus musculus [17]): Active
inhibition at 10 min (CYP2C9): 6.3%
inhibition (Mus musculus [18]): Active
half-life [19]: > 145 min
half-life [20]: 60.6 min
MRT last at 24 h [21]: 31.2 min
inhibition (Mus musculus [22]): Dose-dependent-effect
viability at 5 µM (H9c2 [23]): 64.6%
CLint scaled [24]: < 0.516 L/h/kg
Tmax [25]: 4.98 min
inhibition (Mus musculus [26]): Dose-dependent-effect
Activity [27]: Non-toxic
inhibition at 10 min (CYP2C19): 10.2%
Activity (H9c2 [28]): Active
AUC(0-t) at 24 h [29]: 1.09 µg·h/mL
inhibition (Mus musculus [30]): Dose-dependent-effect
Activity (Mus musculus [31]): 58.46%
inhibition (Mus musculus [32]): Active; Exhibited Pronounced Therapeutic Effect Compared To Catal-Pol
AUC(0-t) at 24 h [33]: 1.82 µg·h/mL
